According to patent US6825230B2, “Spiro and dispiro 1,2,4-trixolane antimalarials” (Medicines for Malaria Venture MMV, priority 2002, dated 2004):
≈ marks a conversion by molar mass, not a printed value. Read-outs that look alike come from different tables or passages of the source.

Key:
[1] = system: chloroquine-sensitive NF54 strain of P. falciparum; assay: In vitro antimalarial semiautomated microdilution assay ([3H]-hypoxanthine incorporation), NF54 strain; assay type: cell-based, Plasmodium falciparum; conditions: Plasmodium falciparum
Protocol: (§1) Various OZ compounds were tested by the semiautomated microdilution assay against intraerythrocytic forms of Plasmodium falciparum derived from asynchronous stock cultures.
(§2) Fifty percent inhibitory concentration (IC50) were estimated by Logit regression analysis.

[2] = system: ANKA strain of P. berghei; assay: Single dose STI in vivo screen in infected mice; set-up: species or system Plasmodium berghei; conditions: for Survival (days) 10 mg/kg po: single 10 mg/kg po in 3% ethanol and 7% Tween 80; for Survival (days) 10 mg/kg po / Survival (days) 10 mg/kg SSV po / Survival (days) 10 mg/kg sc: untreated 6-7 days; for Activity (%) 10 mg/kg po: single 10 mg/kg po in 3% ethanol and 7% Tween 80 on day 1 post-infection; for Activity (%) 10 mg/kg po / Activity (%) 10 mg/kg SSV po / Activity (%) 10 mg/kg sc / Activity (%) 3 mg/kg SSV po: percent reduction in parasitemia on day 3; for Survival (days) 10 mg/kg SSV po: single 10 mg/kg po in SSV; for Activity (%) 10 mg/kg SSV po: single 10 mg/kg po in standard suspending vehicle (SSV) on day 1 post-infection; for Survival (days) 10 mg/kg sc: single 10 mg/kg sc in 3% ethanol and 7% Tween 80; for Activity (%) 10 mg/kg sc: single 10 mg/kg sc in 3% ethanol and 7% Tween 80 on day 1 post-infection; for Survival (days) 3 mg/kg SSV po / Activity (%) 3 mg/kg SSV po: single 3 mg/kg po in SSV
Protocol: In the single dose STI in vivo screen, Moro SPF or NMRI mice infected with the ANKA strain of P. berghei (groups of three mice) were treated on day one post-infection with trioxolanes dissolved or suspended in 3% ethanol and 7% Tween 80. […] SSV consists of 0.5% w/v CMC, 0.5% v/v benzyl alcohol, 0.4% v/v Tween 80, and 0.9% w/v sodium chloride in water. Antimalarial activity was measured by percent reduction in parasitemia on day three post-infection and survival times compared to an untreated control group. Survival to day 30 post-infection is considered to be a cure. […] Other factors influencing antimalarial activity include the stability of carbon radicals formed by β-scission subsequent to the initial electron transfer to the peroxide bond and the influence of steric effects remote from the peroxide bond on the interactions between carbon radicals and potential drug targets.
Moro NMRI male mice (Fu Albino specific pathogen free) weighing 18±2 g were infected intravenously (i.v.) with 2×10^7 P. berghei ANKA strain-infected erythrocytes from donor mice on day 0 of the experiment. From donor mice with circa 30% parasitemia, heparinized blood was taken and diluted in physiological saline to 10^8 parasitized erythrocytes per ml. An aliquot (0.2 ml) of this suspension was injected i.v. into experimental and control groups of mice. […] Throughout the experiments, mice were kept in groups of three or five animals in Makrolon type II cages in an air-conditioned animal room at 22 to 23° C.
They were administered per os (p.o.) in a total volume of 0.01 ml per gram of mouse. The activity of the compound was determined by a variety of methods outlined in subsequent sections. Survival time was also recorded, and survival to day 30 post-infection was considered to be a cure.

[3] = system: chloroquine-resistant K1 strain of P. falciparum; assay: In vitro antimalarial semiautomated microdilution assay ([3H]-hypoxanthine incorporation), K1 strain; assay type: cell-based, Plasmodium falciparum; conditions: Plasmodium falciparum
Protocol: as §1, §2

[4] = NF54, 72 h, read-out: IC50 (ng/ml) NF54, chloroquine-sensitive NF54 strain, 72 h incubation
[5] = chloroquine-resistant K1 strain, 72 h incubation, read-out: IC50 (ng/ml) K1

SMILES | IC50 [1, 4] [ng/mL] | Survival (days) 10 mg/kg po [2] [days] | Activity (%) 10 mg/kg po [2] [%] | Survival (days) 10 mg/kg SSV po [2] | Activity (%) 10 mg/kg SSV po [2] [%] | Survival (days) 10 mg/kg sc [2] [days] | Activity (%) 10 mg/kg sc [2] [%] | IC50 ([1]; chloroquine-sensitive NF54 strain, 72 h incubation, read-out: IC50 (ng/ml) NF54) [ng/mL] | Survival (days) 3 mg/kg SSV po [2] | Activity (%) 3 mg/kg SSV po [2] [%] | IC50 [3, 5] [ng/mL] | IC50 ([3]; K1, 72 h, read-out: IC50 (ng/ml) K1, chloroquine-resistant K1 strain, 72 h incubation) [ng/mL]
N[C@H]1CC[C@]2(CC1)OOC1(O2)C2CC3CC(C2)CC1C3 (some centres unmarked) [OZ137] | 18 (≈ 64.4 nM) | 5.7 | 0 | 6.3 days | 6 | 7.0 | 61 |  |  |  |  | 
CCOC(=O)NC[C@H]1CC[C@]2(CC1)OO[C@]1(O2)C2CC3CC(C2)CC1C3 [OZ289] |  |  |  | 13.4 days | 99.94 |  |  | 0.56 (≈ 1.53 nM) | 7.4 days | 92 |  | 
O=C(NC[C@H]1CC[C@]2(CC1)OO[C@]1(O2)C2CC3CC(C2)CC1C3)c1cccnc1 [OZ273] |  |  |  | 11.7 days | 99.58 |  |  |  | 7.2 days | 64 | 0.97 (≈ 2.43 nM) | 
CN(C)C(=O)N1CCC2(CC1)OOC1(O2)C2CC3CC(C2)CC1C3 (centres unmarked) [OZ133, Adamantane-2-spiro-3′-8′-[(dimethylamino)carbonyl]-1′,2′,4′-trioxa-8′-azaspiro[4.5]decane] |  | 7.0 | 94 | 7.3 days | 97 | 7.0 | 72 |  |  |  |  | 0.7 (≈ 2.08 nM)
O=C(NC[C@H]1CC[C@]2(CC1)OO[C@]1(O2)C2CC3CC(C2)CC1C3)N1CCOCC1 [OZ272] |  |  |  | 10.3 days | 98 |  |  |  | 6.6 days | 49 |  | 
c1cnc(OC[C@H]2CC[C@]3(CC2)OO[C@]2(O3)C3CC4CC(C3)CC2C4)nc1 [OZ325] |  |  |  | 8.8 days |  |  |  |  | 6.2 days | 30 |  | 
Cn1ccnc1S(=O)(=O)C[C@H]1CC[C@]2(CC1)OO[C@]1(O2)C2CC3CC(C2)CC1C3 [OZ310] |  |  |  | 7.8 days | 81 |  |  |  | 8.2 days | 38 |  | 
O=C(Nc1ccccc1)N1CCC2(CC1)OOC1(O2)C2CC3CC(C2)CC1C3 (centres unmarked) [OZ102, Adamantane-2-spiro-3′-8′-(phenylaminocarbonyl)-1′,2′,4′-trioxa-8′-azaspiro[4.5]decane] |  | 7.0 | 92 | 6.7 days | 73 | 19.7 | 99.97 |  |  |  |  | 
O=S(=O)(C[C@H]1CC[C@]2(CC1)OO[C@]1(O2)C2CC3CC(C2)CC1C3)c1cccc[n+]1[O-] [OZ324] |  |  |  | 9.4 days | 60 |  |  |  | 7.4 days | 26 |  | 
O=C(COc1ccc(Cl)cc1)N1CCC2(CC1)OOC1(O2)C2CC3CC(C2)CC1C3 (centres unmarked) [OZ101, Adamantane-2-spiro-3′-8′-(4′-chlorophenoxyacetyl)-1′,2′,4′-trioxa-8′-azaspiro[4.5]decane] |  | 6.3 | 44 | 5.3 days | 0 | 13 | 99.97 |  |  |  |  | 
O=C(NC[C@H]1CC[C@]2(CC1)OO[C@]1(O2)C2CC3CC(C2)CC1C3)[C@@H]1CCCN1 [OZ337] |  |  |  | 8.6 days |  |  |  |  |  | 97 |  | 
O=C(C[C@H]1CC[C@]2(CC1)OO[C@]1(O2)C2CC3CC(C2)CC1C3)N1CCS(=O)(=O)CC1 [OZ342] |  |  |  | 6.8 days | 27 |  |  |  | 6.4 days | 0 |  | 
CCNC(=O)NC[C@H]1CC[C@]2(CC1)OO[C@]1(O2)C2CC3CC(C2)CC1C3 [OZ291] |  |  |  | 8.0 days | 98 |  |  |  | 6.8 days | 34 |  | 
O=C(NC[C@H]1CC[C@]2(CC1)OO[C@]1(O2)C2CC3CC(C2)CC1C3)c1ccccn1 [OZ304] |  |  |  | 8.2 days | 98 |  |  |  | 8.8 days | 61 |  | 
O=c1ccn(C[C@H]2CC[C@]3(CC2)OO[C@]2(O3)C3CC4CC(C3)CC2C4)cc1 [OZ302] |  |  |  | 9.0/9.0 days |  |  |  |  | 9.0/9.0 days | 88 |  | 
O=CNCC(=O)NC[C@H]1CC[C@]2(CC1)OO[C@]1(O2)C2CC3CC(C2)CC1C3 [OZ322] |  |  |  | 10.0 days | 98 |  |  |  | 9.4 days | 61 | 0.9 (≈ 2.38 nM) | 
Nc1ncccc1C(=O)NC[C@H]1CC[C@]2(CC1)OOC1(O2)C2CC3CC(C2)CC1C3 (some centres unmarked) [OZ284] |  |  |  | 9.0 days | 97 |  |  |  | 7.8 days | 61 |  | 
N[C@H]1CCN(C(=O)C[C@H]2CC[C@]3(CC2)OO[C@]2(O3)C3CC4CC(C3)CC2C4)C1 [OZ338] |  |  |  | 9.8 days |  |  |  |  | 8.0 days |  |  | 
O=C(Cn1ccnc1)N1CCC2(CC1)OOC1(O2)C2CC3CC(C2)CC1C3 (centres unmarked) [OZ103, Adamantane-2-spiro-3′-8′-(1′H-imidazol-1′-ylacetyl)-1′,2′,4′-trioxa-8′-azaspiro[4.5]decane] |  | 7.3 | 86 | 6.7 days | 63 | 7.3 | 87 |  |  |  |  | 
CC(C)N(C(=O)N1CCC2(CC1)OOC1(O2)C2CC3CC(C2)CC1C3)C(C)C (centres unmarked) [OZ194, Adamantane-2-spiro-3′-8′-[(diisopropylamino)carbonyl]-1′,2′,4′-trioxa-8′-azaspiro[4.5]decane] | 6.6 (≈ 16.8 nM) | 8.3 | 87 | 8.0 days | 73 | 20.3 | 99.95 |  |  |  |  | 
NS(=O)(=O)c1ccc(NC[C@H]2CC[C@]3(CC2)OO[C@]2(O3)C3CC4CC(C3)CC2C4)cc1 [OZ298] |  |  |  | 9.4 days |  |  |  |  | 9.0 days | 98 |  | 
NCCC(=O)NC[C@H]1CC[C@]2(CC1)OO[C@]1(O2)C2CC3CC(C2)CC1C3 [OZ336] |  |  |  | 9.2 days |  |  |  |  | 9.6 days | 98 |  | 
